These are literature values, as cited in patent US20070184084A1, “IMPLANTABLE ELASTOMERIC CAPROLACTONE DEPOT COMPOSITIONS AND USES THEREOF” (priority 2003, published 2007).

For this data set the following is noted: reported value.

On to `CC(=O)OCC(COC(C)=O)OC(C)=O` [triacetin], for which the solubility in water is listed as 7.17 grams in 100 ml of water.
